Test results from patent US12011431B2, “Pharmaceutical composition for preventing or treating sensorineural hearing loss, containing forskolin and retinoic acid as active ingredients” (AJOU UNIVERSITY INDUSTRY-ACADEMIC COOPERATION FOUNDATION, priority 2018, dated 2024).

Tests used:
[1] = test system: auditory hair cells, supporting cells and spiral ganglion cells in the organ of Corti; assay: Hematoxylin-eosin staining of the cochlea in tumor-induced ototoxic hearing loss animal model; format: in vivo, Balb/c/nu/nu mice; conditions: basal and middle turns of the cochlea; forskolin given with cisplatin
Protocol: (§1) The produced tumor-induced animal model was classified into (1) a physiological saline group (Vehicle), (2) a forskolin administration group (forskolin), (3) a cisplatin administration group (cisplatin), and (4) a cisplatin+forskolin combination administration group (cisplatin+forskolin), and each drug was administered to each group. Cisplatin was administered at 12 mg/kg 5 times a week, forskolin was administered at 2.5 mg/kg 6 times a week for a total of 2 weeks, the auditory brainstem response test was performed again 1 week after all administration was completed, and hematoxylin-eosin staining was performed for histological analysis. The auditory brainstem response (ABR) test is a method that determines the minimum stimulus level (dB) as a hearing threshold when applying tone burst sounds at 16 kHz and 32 kHz using a TDT ABR device. In addition, loss and damage of the auditory hair cells, supporting cells and spiral ganglion cells in the organ of Corti during the basal and middle turns of the cochlea were evaluated using hematoxylin-eosin staining.

HEI-OCl cells = assay: Inhibition of cisplatin-induced apoptosis in auditory cell line (calcein AM, cleaved PARP and caspase 3); format: cell-based; conditions: cisplatin 25 μM
Protocol: An auditory cell line expressing auditory genes (HEI-OCl; House-Ear Institute-organ of Corti 1) was used, and the HEI-OCl cells were incubated in DMEM medium (Dulbecco's modified Eagle's Medium) containing a high concentration of glutamine, supplemented with 10% fetal bovine serum (FBS) and 25 U/ml of interferon gamma at 33° C. and 10% CO2. The cells were treated with cisplatin at a concentration of 25 μM, and the effects of forskolin and retinoic acid were analyzed under conditions in which about 40 to 50% of cells were killed by cisplatin ototoxicity. In order to analyze the effects of forskolin and retinoic acid on ototoxicity, experimental groups were classified into (1) normal, (2) forskolin, (3) retinoic acid, (4) cisplatin, (5) cisplatin+forskolin, (6) cisplatin+retinoic acid, (7) cisplatin+forskolin+retinoic acid. Cisplatin was administered in an amount of 25 μM, forskolin was administered in an amount of 20 μM, and retinoic acid was administered in an amount of 50 μM. Then, viable cells were observed using calcein AM, a fluorescent stain applicable to live cells, and cleaved PARP and caspase 3, as apoptosis markers, were identified at the protein level.

auditory hair cells = assay: Histological examination of the cochlea in conventional ototoxic hearing loss animal model; format: in vivo, SD (Sprague-Dawley) rats; conditions: basal and middle turns in the cochlea; cisplatin 16 mg/kg i.p.; forskolin intratympanic; after 5 days
Protocol: In order to exclude mice having congenitally abnormal hearing, a preliminary hearing test was performed on all mice before the experiment. An auditory brainstem response (ABR) test was conducted on 7-week-old SD (Sprague-Dawley) rats and then 16 mg/kg/7 ml of a cisplatin anticancer drug was administered intraperitoneally once to induce ototoxic hearing loss (FIG. 2). Before and after cisplatin administration, forskolin was intratympanically injected (IT) into one ear once in an amount of 25 μM in 20 μL a total of two times, and physiological saline containing DMSO as a control group was injected into the other ear. After 5 days, an auditory brainstem response (ABR) test and a histological examination were performed to evaluate the effect of preventing induction of forskolin-cAMP activity against ototoxic hearing loss.

[2] = test system: lung cancer cell line (A549) xenograft; assay: Cisplatin anticancer effect in tumor-induced animal model (tumor size); format: in vivo, Balb/c/nu/nu mice; conditions: intraperitoneal for 5 days, then reared for 7 days
Protocol: In order to exclude mice having congenitally abnormal hearing, a preliminary hearing test was performed on all mice before the experiment. An auditory brainstem response (ABR) test was conducted on the immunodeficient Balb/c/nu/nu mice and then a lung cancer cell line (A549) was xenografted subcutaneously into the mice to produce a tumor-induced animal model (FIG. 1). After tumor formation in the tumor-induced ototoxic hearing loss animal model of Example 1, mice were randomly classified, and then (1) physiological saline (vehicle), (2) forskolin, (3) cisplatin or (4) a combination of cisplatin and forskolin was administered intraperitoneally to the mice for 5 days, and then the mice were reared for 7 days. The average tumor volume and body weight of each group were measured every week (FIGS. 4A and 4B). In addition, the weight of each of the extracted tumor and kidney was also measured (FIG. 4E).

[3] = test system: tumor-induced ototoxic hearing loss animal model; assay: Auditory brainstem response (ABR) test in tumor-induced ototoxic hearing loss animal model; format: in vivo, Balb/c/nu/nu mice; conditions: 1 week after 2 weeks of administration, cisplatin 12 mg/kg 5 times a week, forskolin 2.5 mg/kg 6 times a week
Protocol: In order to exclude mice having congenitally abnormal hearing, a preliminary hearing test was performed on all mice before the experiment. An auditory brainstem response (ABR) test was conducted on the immunodeficient Balb/c/nu/nu mice and then a lung cancer cell line (A549) was xenografted subcutaneously into the mice to produce a tumor-induced animal model (FIG. 1).
as §1, with “device.” for “device. In addition, loss and damage of the auditory hair cells, supporting cells and spiral ganglion cells in the organ of Corti during the basal and middle turns of the cochlea were evaluated using hematoxylin-eosin staining.”

With N.N.[Cl][Pt][Cl] [cisplatin, cis-diaminedichloroplatinum (II)] the “loss and damage of auditory outer hair cells (hematoxylin-eosin staining)” value [1] was “a number of the auditory outer hair cells during the basal and middle turns were found to be lost”, the “cells killed by cisplatin ototoxicity” value (HEI-OCl cells) was 40 to 50% and the “cell viability / apoptosis (calcein staining, cleaved PARP and caspase 3)” value (HEI-OCl cells; forskolin 20 μM, retinoic acid 50 μM) was “apoptosis of cisplatin-induced auditory cell lines was observed”. For the same compound, the “loss of auditory hair cells (histological examination)” value (auditory hair cells) was “loss of a number of auditory hair cells”, the “effect of reducing a tumor size compared to the control group” value [2] was “about 50%” and the “hearing threshold (ABR)” value ([3]; 16 kHz) was 29 dB. The “hearing threshold (ABR)” value ([3]; 32 kHz) was 31 dB.
